Experimental data as given in patent US20100028395A1, “COMPOSITIONS CONTAINING N-ACETYLGLUCOSAMINE FOR USE IN DERMO-COSMETOLOGY AND AESTHETIC MEDICINE” (ROTTAPHARM S.P.A., priority 2007, published 2010).

Experiments:
mouse skin fibroblasts = details: addition of HA to primary cultures; cited from earlier work
[1] = tested on: extracellular matrix metalloproteases; details: HA 1 mg/ml; cited from earlier work
[2] = exogenous hyaluronic acid, non cross-linked; cited from earlier work
[3] = tested on: Human fibroblasts, Detroit 551 ATCC CCL III; experiment: Stimulation of collagen synthesis in human fibroblast cultures (Sircol assay); format: cell-based; details: 24 h
Source text: The scope of the test has been the evaluation and the comparison of the potential stimulation exerted by the test substances on the expression of collagen and elastin in “in vitro” cultures of skin-derived cells, such as fibroblasts. The test in question, even though conducted “in vitro”, can be considered to be predictive of the effects of use of the same substances “in vivo”. […] The samples have been dissolved directly in the culture medium. Each sample has been tested in duplicate and the experiments have been repeated twice. The parameters of interest have been determined after 24 hours on separate plates. Untreated cell cultures have been used as controls. A commercially available kit (Sircol™, biodye science) which uses the capacity of the stain Sirius Red to interact with the basic side chains of the aminoacids present in collagen itself, has been used for collagen assays. De novo collagen synthesis has been evaluated in the culture medium following treatment with the test substances, following the protocol provided with the kit, and by using the calibration curve obtained employing the collagen standard contained in turn in the kit. Evaluation of the effects of the substances tested, at the various concentrations, on fibroblast cultures, has been expressed as the absolute and percent increase or decrease of collagen and elastin expression, with respect to the corresponding control culture, after 24 hours of incubation. The percentage difference increase or decrease of the effects exerted by CA and NAG, at corresponding concentrations, have then been calculated, with consequent evaluation of their potential statistical significance by means of the test Student “t” test.

[4] = tested on: Human fibroblasts, Detroit 551 ATCC CCL III; experiment: Stimulation of HA synthesis in human fibroblast cultures (EIA HA assay); format: cell-based; details: 48 h
Source text: The test has been conducted in two stages, i.e.: • stage A: in which the stimulation of HA expression by COMBI has been evaluated while maintaining the concentration constant and varying the reciprocal quantities of its components. The concentration used has been selected so as to enable comparison with the results derived from stage B; • stage B: in which the effect of CA on HA expression has been evaluated by varying its concentration and in comparison with doses consistent with its components. […] Human fibroblasts have been grown in suitable growth medium (Eagle's minimal essential medium) supplemented with 10% foetal calf serum (FCS), 1 mM sodium pyruvate, 2 mM glutamine, non-essential aminoacids and 50 μg/ml glutamycin. […] After 48 hours, the supernatant has been removed and used for the determination of the parameters of interest. The test has been conducted in duplicate and untreated cell cultures have been used as controls. HA has been assayed (dosed) by means of an immuno-enzymatic test using a commercially available kit (EIA, Corgenix). De novo HA synthesis has been evaluated in the culture medium following treatment with the test substances, according to the protocol provided with the test, and against the calibration curve obtained using the HA standard contained in the kit. […] • evaluation of the effects of the substances tested, at the various concentrations, on fibroblast cultures has been expressed as the absolute and percent increase or decrease of the HA expression, with respect to the corresponding control culture, after 48 hours of incubation. The percentage difference increase or decrease of the effects exerted by CA and NAG, at corresponding concentrations, have then been calculated, with evaluation of their potential significance by means of the Student's “t” test.

[5] = tested on: Human fibroblasts, Detroit 551 ATCC CCL III; experiment: Stimulation of elastin synthesis in human fibroblast cultures (Fastin assay); format: cell-based; details: 24 h
Source text: The scope of the test has been the evaluation and the comparison of the potential stimulation exerted by the test substances on the expression of collagen and elastin in “in vitro” cultures of skin-derived cells, such as fibroblasts. The test in question, even though conducted “in vitro”, can be considered to be predictive of the effects of use of the same substances “in vivo”.
Human fibroblasts, Detroit 551 ATCC CCL III from LGC Promochem (Milan, Italy) have been used.
The substances and concentrations tested have been the same as those already described for stage B of the test on the stimulation of HA expression, i.e.: • CA: 0.66, 1.32, 1.98, 2.64 and 3.3 mg/ml • NAG: 0.5, 1.0, 1.5, 2.0 and 2.5 mg/ml • ASS: 0.16, 0.32, 0.48, 0.64 and 0.80 mg/ml
Cells have been plated out in 96 well plates, 2500 cells/well for 24 hours in cell growth medium ([…], DMEM)+10% foetal calf serum (FCS). Fresh culture medium, enriched with just 5% FCS and containing the substances to be tested, so as to reach the final concentrations desired, has then been added. The samples have been dissolved directly in the culture medium. Each sample has been tested in duplicate and the experiments have been repeated twice. The parameters of interest have been determined after 24 hours on separate plates. Untreated cell cultures have been used as controls.
Elastin has been assayed using a commercially available test (Fastin™, biodye science). The assay is based on the interaction of 5,10,15,20-tetraphenyl-21,23-porphyrin with elastin molecules.
De novo elastin synthesis has been evaluated in the culture medium following treatment with the test substances, following the protocol provided with the test, and by using the calibration curve obtained employing the elastin standard contained in the kit itself.
Evaluation of the effects of the substances tested, at the various concentrations, on fibroblast cultures, has been expressed as the absolute and percent increase or decrease of collagen and elastin expression, with respect to the corresponding control culture, after 24 hours of incubation.
The percentage difference increase or decrease of the effects exerted by CA and NAG, at corresponding concentrations, have then been calculated, with consequent evaluation of their potential statistical significance by means of the test Student “t” test.

[6] = tested on: Human fibroblasts, Detroit 551 ATCC CCL III; experiment: MTT cytotoxicity test on fibroblasts; format: cell-based; details: positive control, 0.5 mg/ml SDS
Source text: (§1) For this purpose the cell viability test using MTT (3-[4,5-dimethylthiazol-2-yl]-2,5-diphenyl tetrazolium bromide) [Mossman 1993] a colourimetric reagent, by means of which it is possible to distinguish between living, damaged or dead cells, being thus predictive of the safety of use of test substances, even “in vivo”, has been selected.
(§2) The following have been used: • human fibroblasts, Detroit 551 ATCC CCL III from LGC Promochem (Milan, Italy); • primary culture of human keratinocytes (HEKA), Cascade Biologics, cat.-005-5c.
(§3) In the study in question, CA has been previously dissolved and brought into contact with the selected cell cultures in such a manner as to directly reach the desired concentrations, i.e.: […]
(§4) As already mentioned, the key reagent is MTT, a yellow-coloured substance in aqueous solution which, when acted-on by the mitochondrial dehydrogenases present in viable cells, is transformed into purple crystals, insoluble in water, but soluble in acidified isopropanol. The absorbance of the resulting purple solution at […] is used as an indicator of the level of cytotoxicity of the substances under test.
(§5) In operational terms, the key reagent is prepared by adding 15 mg of MTT to 30 ml of culture medium. […] The plates are shaken for 20-30 minutes until a homogenous solution is formed, the absorbance of which is then read at […] with a background reading at 670 nm. […]

[7] = tested on: primary culture of human keratinocytes (HEKA); experiment: MTT cytotoxicity test on keratinocytes; format: cell-based; details: positive control, 0.5 mg/ml SDS
Source text: as §1, §2, §3, §4, §5

Compound: Hyaluronic acid [HA]
- effect on DNA synthesis (mouse skin fibroblasts): causes transient DNA synthesis
- expression of extracellular matrix metalloproteases [1]: clear increase
- half-life in the skin [2]: less than 24 hours

Compound: anhydrous sodium sulphate [ASS]
- Collagen (%) (Diff. from baseline) ([3]; ASS 0.16 mg/ml): −8.45%
- Collagen(μg/ml) (Diff. from baseline) ([3]; ASS 0.16 mg/ml): -0.43 µg/mL
- Collagen (%) (Diff. from baseline) ([3]; ASS 0.32 mg/ml): +3.93%
- Collagen(μg/ml) (Diff. from baseline) ([3]; ASS 0.32 mg/ml): +0.20 μg/ml
- Collagen (%) (Diff. from baseline) ([3]; ASS 0.48 mg/ml): +1.77%
- Collagen(μg/ml) (Diff. from baseline) ([3]; ASS 0.48 mg/ml): +0.09 μg/ml
- Collagen (%) (Diff. from baseline) ([3]; ASS 0.64 mg/ml): +9.03%
- Collagen(μg/ml) (Diff. from baseline) ([3]; ASS 0.64 mg/ml): +0.46 μg/ml
- Collagen (%) (Diff. from baseline) ([3]; ASS 0.80 mg/ml): −3.34%
- Collagen(μg/ml) (Diff. from baseline) ([3]; ASS 0.80 mg/ml): -0.17 µg/mL
- effect on collagen expression (in words) ([3]; ASS alone 0.16-0.80 mg/ml): exerts no type of stimulation or inhibition
- HA (%) (Diff. from baseline) ([4]; ASS 0.16 mg/ml): +6.07%
- HA(ng/well) (Diff. from baseline) ([4]; ASS 0.16 mg/ml): 35 ng/well
- HA (%) (Diff. from baseline) ([4]; ASS 0.32 mg/ml): +7.99%
- HA(ng/well) (Diff. from baseline) ([4]; ASS 0.32 mg/ml): 46 ng/well
- HA (%) (Diff. from baseline) ([4]; ASS 0.48 mg/ml): +9.38%
- HA(ng/well) (Diff. from baseline) ([4]; ASS 0.48 mg/ml): 54 ng/well
- HA (%) (Diff. from baseline) ([4]; ASS 0.64 mg/ml): −25.87%
- HA(ng/well) (Diff. from baseline) ([4]; ASS 0.64 mg/ml): −149 ng/well
- HA (%) (Diff. from baseline) ([4]; ASS 0.80 mg/ml): +1.91%
- HA(ng/well) (Diff. from baseline) ([4]; ASS 0.80 mg/ml): 11 ng/well
- effect on HA expression (in words) ([4]; ASS alone 0.16-0.80 mg/ml): exerts no stimulation nor inhibition
- Elastin (%) (Diff. from baseline) ([5]; ASS 0.16 mg/ml): −2.33%
- Elastin (μg/ml) (Diff. from baseline) ([5]; ASS 0.16 mg/ml): -0.11 µg/mL
- Elastin (μg/ml) (Mean ± st. dev.) ([5]; ASS 0.16 mg/ml): 4.61 ± 0.41 µg/mL
- Elastin (%) (Diff. from baseline) ([5]; ASS 0.32 mg/ml): +1.98%
- Elastin (μg/ml) (Diff. from baseline) ([5]; ASS 0.32 mg/ml): +0.07 μg/ml
- Elastin (μg/ml) (Mean ± st. dev.) ([5]; ASS 0.32 mg/ml): 4.79 ± 0.44 µg/mL
- Elastin (%) (Diff. from baseline) ([5]; ASS 0.48 mg/ml): +9.75%
- Elastin (μg/ml) (Diff. from baseline) ([5]; ASS 0.48 mg/ml): +0.46 μg/ml
- Elastin (μg/ml) (Mean ± st. dev.) ([5]; ASS 0.48 mg/ml): 5.18 ± 0.36 µg/mL
- Elastin (%) (Diff. from baseline) ([5]; ASS 0.64 mg/ml): −3.81%
- Elastin (μg/ml) (Diff. from baseline) ([5]; ASS 0.64 mg/ml): -0.18 µg/mL
- Elastin (μg/ml) (Mean ± st. dev.) ([5]; ASS 0.64 mg/ml): 4.54 ± 0.47 µg/mL
- Elastin (%) (Diff. from baseline) ([5]; ASS 0.80 mg/ml): −3.39%
- Elastin (μg/ml) (Diff. from baseline) ([5]; ASS 0.80 mg/ml): +0.16 μg/ml
- Elastin (μg/ml) (Mean ± st. dev.) ([5]; ASS 0.80 mg/ml): 4.83 ± 0.30 µg/mL
- effect on elastin expression (in words) ([5]; ASS alone 0.16-0.80 mg/ml): incapable of exerting any effect, either stimulatory or inhibitory

Compound: CCCCCCCCCCCCOS(=O)(=O)[O-].[Na+] [SDS, sodium dodecylsulphate]
- cell mortality [6]: 96.05%
- mortality of the keratinocyte culture [7]: 94.28%
